This note sets out measurements from patent publication US11351131B2, “Anti-inflammatory composition” (NEOPHARM CO., LTD., priority 2016, dated 2022).

For data set [1], the system named is human fibroblast (ATCC 2076). Briefly: Confirmation of cytotoxicity (MTT cell viability). Type of data set: cell-based. To be noted: for Cell viability (%): human fibroblast, MTT. The protocol: The cell viability for human fibroblast (ATCC 2076) was measured using the anti-inflammatory composition prepared in the following Examples.
The human fibroblast (ATCC 2076) with a concentration of 5×10^4 cells/ml was inoculated into a 24-well culture plate of Iscove's Modified Dulbecco's Medium (IMDM, GIBCO) containing 10% bovine serum. […] Then, the supernatant was removed, the cells were washed with 200 μl of 5% phosphate buffered saline (PBS), 1.0 ml of MTT solution was added to each well, and after 4 hours, and the MTT was removed. Next, 1.0 ml of DMSO was added to each well, and incubation was performed overnight at 37° C. The absorbance at 570 nm was measured to determine the cell viability using Equation 1 below, and results thereof are shown in Table 1 below. Here, as a negative control group, a test group in which the active ingredient was not used was adopted. Cell viability (%)=(A570λ value/B570λ value)×100 [Equation 1]
A: Absorbance value at 570 nm of Example
B: Absorbance value at 570 nm of negative control group

Another data set relates to IL-8. The data set is described as follows: Anti-inflammatory effect: IL-8 expression in atopic dermatitis-induced 3D skin model (immunohistochemistry). The settings on record: compared with the atopic dermatitis-induced skin model, 72 hours, quantified immunohistochemistry, read-out: IL-8 inhibitory effect. The format is cell-based. The protocol:
(§1) In order to measure the anti-inflammatory efficacy, atopic dermatitis was induced with respect to IL-8 and IL-17A, which are inflammation-inducing cytokines, and expression amounts thereof were measured.
(§2) In order to induce atopic dermatitis, the 3D culture tissue (EpiDerm Full Thickness 400, sold by MatTek) media containing Poly (I:C), TNF-α, IL-4 and IL-13 were used, and treated for 72 hours with N-(2-hydroxyethyl)octanamide at a final concentration of 100 μM. Then, the 3D culture tissue was immobilized on formalin to make a paraffin block, and the degree of expression of inflammation-inducing cytokine was evaluated.
(§3) In FIG. 1, AD represents a skin model in which atopic dermatitis was induced, and the anti-inflammatory effect was evaluated based on the expression amounts of IL-8 and IL-17A.
(§4) Further, the inhibitory effect of each cytokine was quantified based on the results obtained through the immunohistochemistry obtained in FIG. 1, and shown in FIG. 2.

The test system of the next data set is IL-17A. Briefly: Anti-inflammatory effect: IL-17A expression in atopic dermatitis-induced 3D skin model (immunohistochemistry). The format is cell-based. To be noted: compared with the atopic dermatitis-induced skin model, 72 hours, quantified immunohistochemistry, read-out: IL-17A inhibitory effect. The protocol: as §1, §2, §3, §4
A further data set concerns atopic dermatitis. The data set is described as follows: Atopic dermatitis improvement effect (EASI score). Type of data set: in vivo, human. To be noted: 30 pediatric patients with atopic dermatitis, twice a day for 4 weeks. As to the method: In order to measure atopic dermatitis improvement effect, the anti-inflammatory compositions were prepared according to the following Examples. Here, the atopic dermatitis improvement effect was measured using an eczema area severity index (EASI) score. 30 pediatric patients with atopic dermatitis were treated twice a day for 4 weeks, and then effects on atopic symptoms were measured. Here, as a negative control group, a test group in which the active ingredient was not used was adopted.

The structures appear in SMILES notation.

Consider `CCCCCCCC(=O)NCCO` [Example 1, N-(2-hydroxyethyl)octanamide], for which, in data set [1] (in the concentration range of the evaluation method), the Cytotoxicity entry is listed as “no cytotoxicity”. The “Cell viability (%)” value stood at 100% in data set [1] (used amount 0.00064 μM); 102% in data set [1] (used amount 0.0032 μM); 97% in data set [1] (used amount 0.016 μM); 98% in data set [1] (used amount 0.08 μM); 98% in data set [1] (used amount 0.4 μM); 101% in data set [1] (used amount 2 μM). The entries for the “Cell viability (%)” value in data set [1] (used amount 10 μM), in data set [1] (used amount 50 μM) and in data set [1] (used amount 250 μM) were 103%, 98% and 109%, respectively. For the same compound, the inhibition at 100 µM in the data set with IL-8 is not below 48.6%; with IL-17A, not below 57.5%. Further, the “Atopic dermatitis improvement effect (EASI score)” value in the data set on atopic dermatitis is on record as “significant numerical decrease”.
